Measured values from the NIST ThermoML archive (doi:10.1021/acs.jced.5b00922).

What was measured:
[1] = Liquid; for viscosity: Capillary tube (Ostwald / Ubbelohde) method; for mass density: Pycnometric method
[2] = mn = molality of the nth substance listed, in mol/kg; conditions: 100 kPa, Liquid, m1 = 4.416; for viscosity: Capillary tube (Ostwald / Ubbelohde) method; for mass density: Pycnometric method; for binary diffusion coefficient: absorption column
[3] = wn = mass fraction of the nth substance listed; conditions: 100 kPa, Liquid; for viscosity: Capillary tube (Ostwald / Ubbelohde) method; for mass density: Pycnometric method

CN(CCO)CCO [N-methyldiethanolamine]
[1], 100 kPa
Conditions	mass density [kg/m3]	viscosity [mPa·s]
298 K	1036.7	77.6
308 K	1029.4	44.33
323 K	1018.5	22.3

CN(CCO)CCO [N-methyldiethanolamine] + O
[2]
Conditions	binary diffusion coefficient [m2/s]	mass density [kg/m3]	viscosity [mPa·s]
298 K	8.2e-10	1036.91	3.851
303 K	9.5e-10	1034.27	3.22
308 K	1.09e-09	1030.94	2.7
313 K	1.24e-09	1027.61	2.215
318 K	1.37e-09	1024.05	1.89
323 K	1.54e-09	1020.68	1.62

[3]
Conditions	mass density, w1 = 0.1 [kg/m3]	mass density, w1 = 0.2 [kg/m3]	mass density, w1 = 0.3 [kg/m3]	mass density, w1 = 1 [kg/m3]	viscosity, w1 = 0.1 [mPa·s]	viscosity, w1 = 0.2 [mPa·s]	viscosity, w1 = 0.3 [mPa·s]	viscosity, w1 = 1 [mPa·s]
298 K	1005.7	1015	1024.6	1036.7	1.295	1.925	3.031	77.6
308 K	1001.9	1010.9	1020.2	1029.4	1.007	1.468	2.251	44.33
323 K	995.9	1003.4	1012	1018.5	0.748	1.033	1.491	22.3

NCCCNCCCN [bis(3-aminopropyl)amine]
[1], 101.33 kPa
Conditions	mass density [kg/m3]	viscosity [mPa·s]
298 K	927.36	8.51
303 K	923.34	7.04
308 K	919.32	5.92
313 K	915.28	5.05
318 K	911.18	4.62
323 K	906.97	3.99
